A short description of data set [1]: water solubility. Format: physicochemical. The settings on record: room temperature.
For data set [2] the following is noted: cited from earlier work.

In general, solubility refers to the dissolved amount per volume that the medium holds. A high value points to a readily soluble substance.

Turning to `CO[C@@H]1[C@H](N(C)C(=O)c2ccccc2)C[C@H]2O[C@]1(C)n1c3ccccc3c3c4c(c5c6ccccc6n2c5c31)C(=O)NC4` [N-benzoyl-staurosporin], in data set [1], the solubility is less than 0.1 µg/mL.
For `CN[C@@H]1C[C@H]2O[C@@](C)([C@@H]1OC)n1c3ccccc3c3c4c(c5c6ccccc6n2c5c31)C(=O)NC4` [staurosporin], the “water-solubility (in words)” value in data set [2] is “low water-solubility”.
